Measured values published in patent US20240391862A1, “(1,4,5-TRISUBSTITUTED-1H-PYRAZOL-3-YL)OXY-2-ALKOXY ALKYL ACIDS AND THEIR DERIVATIVES, THEIR SALTS AND THEIR USE AS HERBICIDAL AGENTS” (Bayer AKtiengesellschaft, priority 2021, published 2024).

Tests used:
[1] = tested on: VIOTR; assay: Post-emergence herbicidal effect, greenhouse pot test; format: in vivo, Viola tricolor; settings: Viola tricolor, 504 h, 320 g/ha, read-out: Post-emergence effect against VIOTR in %
Method in brief: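 Greenhouse pot test: weeds and crops sown in sandy loam, sprayed post-emergence at one-leaf stage (2–3 weeks after sowing) with WP or EC formulations plus 0.5% additive at 600 l/ha water, rates 20–320 g/ha. Visual rating about 3 weeks later versus untreated controls (100% = dead, 0% = as control).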

[2] = tested on: BRSNW; format: in vivo, Brassica napus; settings: one-leaf stage, rated visually after about 3 weeks vs untreated controls
From the text: • ALOMY: Alopecurus myosuroides SETVI: Setaria viridis • AVEFA: Avena fatua POLCO: Fallopia convolvulus • AMARE: Amaranthus retroflexus ECHCG: Echinochloa crus-galli • LOLRJ: Lolium rigidum STEME: Stellaria media • VERPE: Veronica persica MATIN: Tripleurospermum inodorum • DIGSA: Digitaria sanguinalis ABUTH: Abutylon threophrasti • TRZAS: Triticum aestivum VIOTR: Viola tricolor • BRSNW: Brassica napus ZEAMX: Zea mays • PHBPU: Ipomoea purpurea GLXMA: Glycine max • ORYSA: Oryza sativa HORMU: Hordeum murinum
Seeds of monocotyledonous and dicotyledonous weeds and crop plants are placed in sandy loam in plastic or organic planting pots, covered with soil and cultivated in a greenhouse under controlled growth conditions. 2 to 3 weeks after sowing, the trial plants are treated at the one-leaf stage. The compounds of the invention, formulated in the form of wettable powders (WP) or as emulsion concentrates (EC), are then sprayed onto the green parts of the plants as aqueous suspension or emulsion with addition of 0.5% additive at a water application rate of 600 l/ha (converted). After the test plants have been kept in the greenhouse under optimum growth conditions for about 3 weeks, the activity of the preparations is rated visually in comparison to untreated controls. For example, 100% activity=the plants have died, 0% activity=like control plants.
Tables 20a to 38c below show the effects/crop compatibilities of selected compounds of the general formula (I) on various harmful plants at an application rate corresponding to 20 to 320 g/ha, which were obtained by the trial procedure specified above.

[3] = tested on: TRZAS; assay: Post-emergence herbicidal effect and crop plant compatibility, greenhouse pot test; format: in vivo, Triticum aestivum; settings: Triticum aestivum, 504 h, 20 g/ha, one-leaf stage, rated visually after about 3 weeks vs untreated controls, read-out: Post-emergence effect at 20 g/ha against TRZAS in %
Method in brief: (§1)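 Sandy loam pots, greenhouse. One-leaf stage (2–3 wk after sowing) foliar spray; WP/EC in water + 0.5% additive, 600 l/ha; 20–320 g/ha. Visual score ~3 wk, 0–100% vs untreated.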

[4] = tested on: ZEAMX; assay: as above; format: in vivo, Zea mays; settings: Zea mays, 504 h, one-leaf stage, rated visually after about 3 weeks vs untreated controls
Method in brief: as §1

With `CCOC(Oc1nn(-c2ccccc2F)c(-c2ccc(F)nc2)c1Br)C(=O)O` (racemic) [Example I-51, (2RS)-{[4-Bromo-1-(2-fluorophenyl)-5-(6-fluoropyridin-3-yl)-1H-pyrazol-3-yl]oxy}(ethoxy)acetic acid] the pest or weed control at 320 g/ha [1] was 80%, the “Post-emergence effect at 320 g/ha against BRSNW in %” value [2] was 0% and the percent crop injury (phytotoxicity) to wheat, post-emergence at 20 g/ha [3] was 0%. For the same compound, the plant injury at 20 g/ha ([4]; 20 g/ha, read-out: Post-emergence effect at 20 g/ha against ZEAMX in %) was 0%, the plant injury at 80 g/ha ([4]; 80 g/ha, read-out: Post-emergence effect at 80 g/ha against ZEAMX in %) was 0% and the plant injury at 320 g/ha ([4]; 320 g/ha, read-out: Post-emergence effect at 320 g/ha against ZEAMX in %) was 0%.
